Where “and” joins values, the source holds several entries; their conditions need not be identical. Equal entries are not always repeated. Where two headings read alike, the source gives them in different places.
How the values were obtained:
[1] = Plasma stability; format: in vitro ADME; settings: rat plasma
Experimental: (§1) 300 μL blood collected from the rat was mixed with 30 μL methanol and 2 mL ethyl acetate. The samples were vortexed for 3 min and centrifuged at 4000 rpm for 15 min. The supernatant was introduced into another centrifugal tube. The lower layer was repeatedly extracted and then the supernatants were combined and dried with nitrogen gas. After redissolution with 150 μL methanol, they were filtered by 0.22 μm membrane and then subjected to analysis with a injection volume of 20 μL.
[…] The samples were prepared according to the method of 3.1. 20 μL were introduced into the HPLC system and the peak area is recorded for analysis to determine the stability of compound 1 and 2 in plasma.

[2] = Pharmacokinetics after single oral dose in rats; format: in vivo, Wistar rat
Experimental: as §1
An amount of compound was taken accurately to prepare CMC-Na aqueous solution containing 3 mg/mL of drug. 12 healthy male Wister rats were randomly assigned to two groups, each group including 6 rats. The first group was administrated orally compound 1. The second group was administrated orally compound 2. The doses were both 30 mg/kg (corresponding to 2 mL for each rat). The rats were fasting for 12 h before administration and free access to water. 0.6 mL blood samples were collected at 0.5, 1, 1.5, 2, 2.5, 3, 5, 8, 12 and 24 h after drug administration from the venous sinuses and added into EP tubes which were rinsed with heparin sodium previously. The samples were centrifuged at 4,000 r/min for 15 min and the upper plasma were obtained. 300 μL plasma was subjected to analysis and the chromatogram and peak area were recorded. The plasma concentrations of compounds 1 and 2 were calculated to give average concentration-time curve.
DAS 2.0 program was used to analyze plasma concentration vs. time data after s single oral dose (Table 6, 7). Fitting and the AIC methods were used to determine the model. The analysis was based on the principle that the larger fitting and the smaller AIC, the better model. The oral administration was consistent with the two-compartment model. The statistical distance parameter is used to compare the 2 compounds for the pharmacokinetic parameters.

[3] = male, Wistar, plasma, rat, oral 30 mg/kg

## O=C(Nc1ccc(CN2CCOCC2)cc1)c1n[nH]cc1Nc1ncnc2sccc12 [Compound I-2, 4-(4-thieno[2,3-d]pyrimidinylamino)-N-(4-((4-morpholinyl)methyl)phenyl)-1H-3-pyrazolecarboxamide]
[1]; 24 h
  plasma stability in 24 h (in words): good plasma stability
[1]; Time 0 h
  Plasma stability (HPLC reading): 2.36
[1]; Time 1 h
  Plasma stability (HPLC reading): 2.34
[1]; Time 2 h
  Plasma stability (HPLC reading): 2.29
[1]; Time 3 h
  Plasma stability (HPLC reading): 2.21
[1]; Time 5 h
  Plasma stability (HPLC reading): 2.16
[1]; Time 8 h
  Plasma stability (HPLC reading): 2.11
[1]; Time 12 h
  Plasma stability (HPLC reading): 1.97
[1]; Time 24 h
  Plasma stability (HPLC reading): 1.85
other
  melting point: 262 to 265 °C
[2]; [3]
  Cmax: 265 ± 52.9 ng/mL
  Tmax: 14 ± 5.29 h
  half-life: 14.7 ± 4.23 h
[2]; male, Wistar, plasma, rat, oral 30 mg/kg, read-out: AUC 0-24
  AUC(0-t): 4350 ± 1300 ng·h/mL
[2]; male, Wistar, plasma, rat, oral 30 mg/kg, read-out: MRT 0-24
  MRT last: 13.8 ± 1.29 h
[2]; male, Wistar, rat, plasma, po, 30 mg/kg, mean of rats, oral 30 mg/kg, time 0.5 h, read-out: Plasma concentration, mean
  concentration at 0.5 h: 50.8 ng/mL
[2]; male, Wistar, rat, plasma, po, 30 mg/kg, mean of rats, oral 30 mg/kg, time 1 h, read-out: Plasma concentration, mean
  concentration at 1 h: 85.3 ng/mL
[2]; male, Wistar, rat, plasma, po, 30 mg/kg, mean of rats, oral 30 mg/kg, time 2 h, read-out: Plasma concentration, mean
  concentration at 2 h: 53.2 ng/mL
[2]; male, Wistar, rat, plasma, po, 30 mg/kg, mean of rats, oral 30 mg/kg, time 2.5 h, read-out: Plasma concentration, mean
  concentration at 2.5 h: 57.6 ng/mL
[2]; male, Wistar, rat, plasma, po, 30 mg/kg, mean of rats, oral 30 mg/kg, time 3 h
  concentration at 3 h: 64.5 ng/mL
[2]; male, Wistar, rat, plasma, po, 30 mg/kg, mean of rats, oral 30 mg/kg, time 5 h
  concentration at 5 h: 122 ng/mL
[2]; male, Wistar, rat, plasma, po, 30 mg/kg, mean of rats, oral 30 mg/kg, time 8 h, read-out: Plasma concentration, mean
  concentration at 8 h: 162 ng/mL
[2]; male, Wistar, rat, plasma, po, 30 mg/kg, mean of rats, oral 30 mg/kg, time 12 h, read-out: Plasma concentration, mean
  concentration at 12 h: 264 ng/mL
[2]; male, Wistar, rat, plasma, po, 30 mg/kg, mean of rats, oral 30 mg/kg, time 24 h
  concentration at 24 h: 157 ng/mL
[2]; male, Wistar, rat, plasma, po, 30 mg/kg, rat No. 1-6, oral 30 mg/kg, time 2.5 h, read-out: Plasma concentration, individual rats
  concentration at 2.5 h: 72.9 ng/mL
[2]; male, Wistar, rat, plasma, po, 30 mg/kg, rat No. 1-6, oral 30 mg/kg, time 12 h, read-out: Plasma concentration, individual rats
  concentration at 12 h: 253 ng/mL
[2]; rat No. 1-6, oral 30 mg/kg, time 0.5 h, 30 mg/kg
  Plasma concentration, individual rats: 29.26 ng*ml/1 and 123.49 ng*ml/1 and 25.98 ng*ml/1 and 24.36 ng*ml/1
[2]; rat No. 1-6, oral 30 mg/kg, time 1 h, 30 mg/kg
  Plasma concentration, individual rats: 208.71 ng*ml/1 and 28.68 ng*ml/1 and 18.66 ng*ml/1
[2]; rat No. 1-6, oral 30 mg/kg, time 2 h, 30 mg/kg
  Plasma concentration, individual rats: 53.04 ng*ml/1 and 88.44 ng*ml/1 and 37.16 ng*ml/1 and 47.57 ng*ml/1 and 47.03 ng*ml/1 and 46.08 ng*ml/1
[2]; rat No. 1-6, oral 30 mg/kg, time 2.5 h, 30 mg/kg
  Plasma concentration, individual rats: 74.79 ng*ml/1 and 57.6 ng*ml/1 and 39.48 ng*ml/1 and 49.89 ng*ml/1 and 51.04 ng*ml/1
[2]; rat No. 1-6, oral 30 mg/kg, time 3 h, 30 mg/kg
  Plasma concentration, individual rats: 81.11 ng*ml/1 and 87.89 ng*ml/1 and 57.21 ng*ml/1 and 41.79 ng*ml/1 and 65.08 ng*ml/1 and 53.93 ng*ml/1
[2]; rat No. 1-6, oral 30 mg/kg, time 5 h, 30 mg/kg
  Plasma concentration, individual rats: 124.06 ng*ml/1 and 272.93 ng*ml/1 and 86.12 ng*ml/1 and 78.03 ng*ml/1 and 94.32 ng*ml/1 and 76.64 ng*ml/1
[2]; rat No. 1-6, oral 30 mg/kg, time 8 h, 30 mg/kg
  Plasma concentration, individual rats: 196.61 ng*ml/1 and 263.95 ng*ml/1 and 119.66 ng*ml/1 and 82.66 ng*ml/1 and 121.59 ng*ml/1 and 186.27 ng*ml/1
[2]; rat No. 1-6, oral 30 mg/kg, time 12 h, 30 mg/kg
  Plasma concentration, individual rats: 345.56 ng*ml/1 and 229.22 ng*ml/1 and 256.32 ng*ml/1 and 213.94 ng*ml/1 and 286.97 ng*ml/1
[2]; rat No. 1-6, oral 30 mg/kg, time 24 h, 30 mg/kg
  Plasma concentration, individual rats: 198.92 ng*ml/1 and 97.83 ng*ml/1 and 209.56 ng*ml/1 and 221.75 ng*ml/1 and 74.79 ng*ml/1 and 138.91 ng*ml/1
[2]; rat, oral 30 mg/kg
  pharmacokinetic parameters (in words): acceptable

— US9550792B2, “Polycyclic substituted pyrazole kinase activity inhibitors and use thereof” (priority 2013, dated 2017)
